Data published in patent publication US20160143946A1, “COMBINATION THERAPIES FOR TREATING CANCER” (priority 2014, published 2016).
Read-outs that look alike come from different tables or passages of the source.

Key:
Format in all cases: cell-based, human
[1] = tested on: SW780 cells; experiment: Cisplatin / HDAC inhibitor combination, MTT survival with isobologram combination index, SW780; details: administered at their IC90s; SW780 and HT1376 cells (Table 3)
Description: Isobolograms were used to calculate combination indices to indicate synergy at IC50 and IC90, whereby CI<1 denotes synergy.
(§1) Bladder Cancer Cell Lines—SW780 and HT1376 cell lines were grown in RPMI with 10% fetal bovine serum at 37° C. with 5% CO2 and treated with cisplatin, AR-42, sodium butyrate, trichostatin A, and valproic acid at concentrations indicated.
SW780 and HT1376 cells treated with cisplatin, AR-42, a combination cisplatin and AR-42 at a 5:1 ratio, a combination cisplatin and AR-42 in a 20:1 molar ratio, as assessed by MTT incorporation (FIG. 2).

[2] = tested on: HT1376 bladder cancer cell line; experiment: Cell viability by MTT incorporation, HT1376 bladder cancer cells; details: read-out: HT1376 IC50
Description: (§2) SW780 and HT1376 bladder cancer cell lines stained with anti-CD44 and anti-CD49f were examined by flow cytometry. Cells were treated with cisplatin, AR-42, sodium butyrate, valproic acid, and trichostatin A at concentrations indicated for 24 hours and cell viability was determined by MTT incorporation. The table denotes IC50s for SW780 and HT1376 cells to listed agents.
as §1
(§3) SW780 and HT1376 cell lines were treated with cisplatin, AR-42, sodium butyrate, valproic acid, and trichostatin A at various concentrations and cell viability was determined by MTT incorporation (FIG. 1).

[3] = tested on: SW780 bladder cancer cell line; experiment: Cell viability by MTT incorporation, SW780 bladder cancer cells; details: read-out: SW780 IC50
Description: as §2, §1, §3

[4] = Homo sapiens, HT-1376, HT1376 cells, 24 hours treatment, MTT incorporation
[5] = Homo sapiens, SW780 cells, 24 hours treatment, MTT incorporation
[6] = HT1376 cells, 24 hours treatment, MTT incorporation
[7] = SW780 cells, 24 hours treatment, MTT incorporation

Structure (SMILES): CCCC(=O)[O-].[Na+] [Sodium Butyrate]
- synergy with cisplatin [1]: synergy
- IC50 ([2]; Homo sapiens, HT-1376, 24 h): 8530 µM
- IC50 ([3]; Homo sapiens, SW780, 24 h): 3780 µM

Structure (SMILES): CC(C)[C@H](C(=O)Nc1ccc(C(=O)NO)cc1)c1ccccc1 [AR-42]
- synergy with cisplatin [1]: synergy
- IC50 [2, 4]: 1.4 µM
- IC50 [3, 5]: 1.41 µM

Structure (SMILES): CCCC(CCC)C(=O)O [Valproic Acid]
- IC50 [2, 4]: 7390 µM
- IC50 [3, 5]: 6040 µM

Structure (SMILES): CC(/C=C/C(=O)NO)=C\[C@@H](C)C(=O)c1ccc(N(C)C)cc1 [Trichostatin A]
- IC50 [2, 6]: 0.12 µM
- IC50 [3, 7]: 0.25 µM

Structure (SMILES): N.N.[Cl][Pt][Cl] [Cisplatin]
- IC50 [2, 6]: 30.5 µM
- IC50 [3, 7]: 8.5 µM
